This is an account of results in publication PMC12102759 (Protein Science : A Publication of the Protein Society, 2025).

The subject of the assay is PABPC1 PABC. The format is binding, human. Conditions: DMS-BM library, bait PABPC1 PABC, row aa = residue at this position.
Setting [1] is: prey ATXN2, peptide KSTLNPNAKEFNPRSF, L = wild type.
Where [2] appears, read: prey ATXN2, TLNPNAKEFNPRSF(averaged) over the two overlapping peptides, L = wild type.
Where [3] appears, read: prey ATXN2, peptide TLNPNAKEFNPRSFSQ, A = wild type.
The mark [4] stands for this setting: prey ATXN2, peptide KSTLNPNAKEFNPRSF, E = wild type.
Where [5] appears, read: prey ATXN2, peptide TLNPNAKEFNPRSFSQ, S = wild type.
The mark [6] stands for this setting: prey ATXN2, peptide TLNPNAKEFNPRSFSQ, R = wild type.
The mark [7] stands for this setting: prey ATXN2, peptide KSTLNPNAKEFNPRSF, S = wild type.
The mark [8] stands for this setting: prey ATXN2, peptide KSTLNPNAKEFNPRSF, N = wild type.
The mark [9] stands for this setting: prey ATXN2, peptide TLNPNAKEFNPRSFSQ, F = wild type.
[10] abbreviates: prey ATXN2, peptide TLNPNAKEFNPRSFSQ, N = wild type.
[11] abbreviates: prey ATXN2, peptide KSTLNPNAKEFNPRSF, K = wild type.
[12] abbreviates: prey ATXN2, TLNPNAKEFNPRSF(averaged) over the two overlapping peptides, N = wild type.
Where [13] appears, read: prey ATXN2, TLNPNAKEFNPRSF(averaged) over the two overlapping peptides, E = wild type.
[14] abbreviates: prey ATXN2, peptide KSTLNPNAKEFNPRSF, F = wild type.
Where [15] appears, read: prey ATXN2, TLNPNAKEFNPRSF(averaged) over the two overlapping peptides, T = wild type.
The mark [16] stands for this setting: prey ATXN2, peptide KSTLNPNAKEFNPRSF, P = wild type.
[17] abbreviates: prey ATXN2, TLNPNAKEFNPRSF(averaged) over the two overlapping peptides, F = wild type.
Where [18] appears, read: prey ATXN2, peptide TLNPNAKEFNPRSFSQ, K = wild type.
[19] abbreviates: prey ATXN2, peptide KSTLNPNAKEFNPRSF, A = wild type.

Read-outs that look alike come from different tables or passages of the source.

For KSTLNPNAKEFNPRSF L4M (KSTMNPNAKEFNPRSF), the “DMS-derived PSSM value, position L4” value under setting [1] amounted to 0.3054.

Turning to “TLNPNAKEFNPRSF(averaged) L2V (TVNPNAKEFNPRSF)”, the “DMS-derived PSSM value (averaged), position L2” value under setting [2] came out at 0.005447. On to TLNPNAKEFNPRSFSQ A6E (TLNPNEKEFNPRSFSQ), for which the “DMS-derived PSSM value, position A6” value under setting [3] is recorded as 0. On to TLNPNAKEFNPRSFSQ L2N (TNNPNAKEFNPRSFSQ), for which the “DMS-derived PSSM value, position L2” value (prey ATXN2, peptide TLNPNAKEFNPRSFSQ, L = wild type) came out at 0. Regarding “KSTLNPNAKEFNPRSF E10P (KSTLNPNAKPFNPRSF)”, the “DMS-derived PSSM value, position E10” value under setting [4] is 0.01939.

Consider “TLNPNAKEFNPRSFSQ S13A (TLNPNAKEFNPRAFSQ)”, for which the “DMS-derived PSSM value, position S13” value under setting [5] came to 0.2244.

For the substance “TLNPNAKEFNPRSFSQ R12Q (TLNPNAKEFNPQSFSQ)”, under setting [6], the “DMS-derived PSSM value, position R12” value turned out to be 0.0158. For the substance “TLNPNAKEFNPRSFSQ R12F (TLNPNAKEFNPFSFSQ)”, under setting [6], the “DMS-derived PSSM value, position R12” value turned out to be 0.03143. Take “KSTLNPNAKEFNPRSF S15D (KSTLNPNAKEFNPRDF)”: the “DMS-derived PSSM value, position S15” value under setting [7] was 0. As to “KSTLNPNAKEFNPRSF N12H (KSTLNPNAKEFHPRSF)”, under setting [8], the “DMS-derived PSSM value, position N12” value was 0.04066.

Consider “TLNPNAKEFNPRSF(averaged) S13L (TLNPNAKEFNPRLF)”, for which, where the note is “prey ATXN2, TLNPNAKEFNPRSF(averaged) over the two overlapping peptides, S = wild type”, the “DMS-derived PSSM value (averaged), position S13” value came to 0.2429. On to TLNPNAKEFNPRSFSQ F9V (TLNPNAKEVNPRSFSQ), for which the “DMS-derived PSSM value, position F9” value under setting [9] came out at 0.0008789. On to “TLNPNAKEFNPRSFSQ N10R (TLNPNAKEFRPRSFSQ)”, for which, under setting [10], the “DMS-derived PSSM value, position N10” value is 0.03785. Regarding KSTLNPNAKEFNPRSF K9E (KSTLNPNAEEFNPRSF), the “DMS-derived PSSM value, position K9” value under setting [11] turned out to be 0.0298.

As to TLNPNAKEFNPRSFSQ T1W (WLNPNAKEFNPRSFSQ), the “DMS-derived PSSM value, position T1” value (prey ATXN2, peptide TLNPNAKEFNPRSFSQ, T = wild type) stood at 0.001527. Take “TLNPNAKEFNPRSF(averaged) N3A (TLAPNAKEFNPRSF)”: the “DMS-derived PSSM value (averaged), position N3” value under setting [12] amounted to 0. On to “TLNPNAKEFNPRSF(averaged) E8L (TLNPNAKLFNPRSF)”, for which the “DMS-derived PSSM value (averaged), position E8” value under setting [13] was determined as 0. In the case of “KSTLNPNAKEFNPRSF F16N (KSTLNPNAKEFNPRSN)”, under setting [14], the “DMS-derived PSSM value, position F16” value was 0.04727. “TLNPNAKEFNPRSF(averaged) T1P (PLNPNAKEFNPRSF)”: under setting [15], the “DMS-derived PSSM value (averaged), position T1” value was 0.02725. For the substance “KSTLNPNAKEFNPRSF E10D (KSTLNPNAKDFNPRSF)”, the “DMS-derived PSSM value, position E10” value under setting [4] came out at 0.

Regarding KSTLNPNAKEFNPRSF S2P (KPTLNPNAKEFNPRSF), the “DMS-derived PSSM value, position S2” value under setting [7] is reported as 0.1938. KSTLNPNAKEFNPRSF P6N (KSTLNNNAKEFNPRSF): the “DMS-derived PSSM value, position P6” value under setting [16] came out at 0. “TLNPNAKEFNPRSF(averaged) T1G (GLNPNAKEFNPRSF)”: under setting [15], the “DMS-derived PSSM value (averaged), position T1” value is reported as 0.09. “TLNPNAKEFNPRSF(averaged) E8H (TLNPNAKHFNPRSF)”: the “DMS-derived PSSM value (averaged), position E8” value under setting [13] is 0.2075. As to KSTLNPNAKEFNPRSF K9R (KSTLNPNAREFNPRSF), the “DMS-derived PSSM value, position K9” value under setting [11] is recorded as 0.0319.

As to TLNPNAKEFNPRSFSQ N5Y (TLNPYAKEFNPRSFSQ), the “DMS-derived PSSM value, position N5” value under setting [10] turned out to be 0.002973. Consider KSTLNPNAKEFNPRSF P6I (KSTLNINAKEFNPRSF), for which, under setting [16], the “DMS-derived PSSM value, position P6” value was 0.3229. As to TLNPNAKEFNPRSFSQ F9K (TLNPNAKEKNPRSFSQ), under setting [9], the “DMS-derived PSSM value, position F9” value worked out at 0. For the substance “TLNPNAKEFNPRSF(averaged) F9L (TLNPNAKELNPRSF)”, the “DMS-derived PSSM value (averaged), position F9” value under setting [17] came to 0.

As for “KSTLNPNAKEFNPRSF F11I (KSTLNPNAKEINPRSF)”, under setting [14], the “DMS-derived PSSM value, position F11” value came to 0. For the substance TLNPNAKEFNPRSFSQ K7F (TLNPNAFEFNPRSFSQ), the “DMS-derived PSSM value, position K7” value under setting [18] was determined as 0.058.

Regarding KSTLNPNAKEFNPRSF K9W (KSTLNPNAWEFNPRSF), the “DMS-derived PSSM value, position K9” value under setting [11] amounted to 0.002107. KSTLNPNAKEFNPRSF L4Y (KSTYNPNAKEFNPRSF): the “DMS-derived PSSM value, position L4” value under setting [1] is reported as 0.

Consider “TLNPNAKEFNPRSF(averaged) R12M (TLNPNAKEFNPMSF)”, for which the “DMS-derived PSSM value (averaged), position R12” value (prey ATXN2, TLNPNAKEFNPRSF(averaged) over the two overlapping peptides, R = wild type) stood at 0.02329. For the substance TLNPNAKEFNPRSFSQ K7A (TLNPNAAEFNPRSFSQ), under setting [18], the “DMS-derived PSSM value, position K7” value turned out to be 0.2382. As to “TLNPNAKEFNPRSF(averaged) A6K (TLNPNKKEFNPRSF)”, the “DMS-derived PSSM value (averaged), position A6” value (prey ATXN2, TLNPNAKEFNPRSF(averaged) over the two overlapping peptides, A = wild type) is 0. With KSTLNPNAKEFNPRSF A8D (KSTLNPNDKEFNPRSF), the “DMS-derived PSSM value, position A8” value under setting [19] is 0.

On to “KSTLNPNAKEFNPRSF S15M (KSTLNPNAKEFNPRMF)”, for which, under setting [7], the “DMS-derived PSSM value, position S15” value came to 0.01897.

For the substance “KSTLNPNAKEFNPRSF R14T (KSTLNPNAKEFNPTSF)”, the “DMS-derived PSSM value, position R14” value (prey ATXN2, peptide KSTLNPNAKEFNPRSF, R = wild type) was 0.1913. On to “TLNPNAKEFNPRSF(averaged) E8P (TLNPNAKPFNPRSF)”, for which the “DMS-derived PSSM value (averaged), position E8” value under setting [13] is given as 0.1423. “KSTLNPNAKEFNPRSF P13Q (KSTLNPNAKEFNQRSF)”: the “DMS-derived PSSM value, position P13” value under setting [16] was 0.08339. As for “TLNPNAKEFNPRSF(averaged) N10M (TLNPNAKEFMPRSF)”, under setting [12], the “DMS-derived PSSM value (averaged), position N10” value was 0.09167. For “TLNPNAKEFNPRSF(averaged) N3D (TLDPNAKEFNPRSF)”, the “DMS-derived PSSM value (averaged), position N3” value under setting [12] is given as 0.0826. For the substance TLNPNAKEFNPRSFSQ A6W (TLNPNWKEFNPRSFSQ), the “DMS-derived PSSM value, position A6” value under setting [3] is 0. On to KSTLNPNAKEFNPRSF L4V (KSTVNPNAKEFNPRSF), for which, under setting [1], the “DMS-derived PSSM value, position L4” value stood at 0.01089.

As to TLNPNAKEFNPRSFSQ E8V (TLNPNAKVFNPRSFSQ), the “DMS-derived PSSM value, position E8” value (prey ATXN2, peptide TLNPNAKEFNPRSFSQ, E = wild type) was found to be 0.09834. As to TLNPNAKEFNPRSFSQ K7I (TLNPNAIEFNPRSFSQ), under setting [18], the “DMS-derived PSSM value, position K7” value was 0.003703. For the substance KSTLNPNAKEFNPRSF N7A (KSTLNPAAKEFNPRSF), the “DMS-derived PSSM value, position N7” value under setting [8] is recorded as 0.01018. Take “TLNPNAKEFNPRSF(averaged) K7H (TLNPNAHEFNPRSF)”: the “DMS-derived PSSM value (averaged), position K7” value (prey ATXN2, TLNPNAKEFNPRSF(averaged) over the two overlapping peptides, K = wild type) is given as 0.03669.

Consider KSTLNPNAKEFNPRSF K9Y (KSTLNPNAYEFNPRSF), for which, under setting [11], the “DMS-derived PSSM value, position K9” value was 0.02328. As for “TLNPNAKEFNPRSF(averaged) F9V (TLNPNAKEVNPRSF)”, under setting [17], the “DMS-derived PSSM value (averaged), position F9” value was 0.0004395. On to “TLNPNAKEFNPRSF(averaged) F14W (TLNPNAKEFNPRSW)”, for which the “DMS-derived PSSM value (averaged), position F14” value under setting [17] turned out to be 0.01444. Consider TLNPNAKEFNPRSFSQ N5E (TLNPEAKEFNPRSFSQ), for which the “DMS-derived PSSM value, position N5” value under setting [10] stood at 3.906e-5. For the substance “TLNPNAKEFNPRSFSQ S15V (TLNPNAKEFNPRSFVQ)”, under setting [5], the “DMS-derived PSSM value, position S15” value is on record as 0.009732.

As for KSTLNPNAKEFNPRSF K9M (KSTLNPNAMEFNPRSF), the “DMS-derived PSSM value, position K9” value under setting [11] came to 0.1105.

For TLNPNAKEFNPRSFSQ F9M (TLNPNAKEMNPRSFSQ), the “DMS-derived PSSM value, position F9” value under setting [9] stood at 0. As for KSTLNPNAKEFNPRSF A8M (KSTLNPNMKEFNPRSF), the “DMS-derived PSSM value, position A8” value under setting [19] is reported as 0.

Regarding “KSTLNPNAKEFNPRSF S15I (KSTLNPNAKEFNPRIF)”, the “DMS-derived PSSM value, position S15” value under setting [7] was found to be 0.03802. “TLNPNAKEFNPRSF(averaged) L2M (TMNPNAKEFNPRSF)”: under setting [2], the “DMS-derived PSSM value (averaged), position L2” value was 0.2157. In the case of “KSTLNPNAKEFNPRSF F16I (KSTLNPNAKEFNPRSI)”, the “DMS-derived PSSM value, position F16” value under setting [14] worked out at 0.0559.
